Source: ChEMBL document CHEMBL1136670, “Synthesis of quinolinyl/isoquinolinyl[a]pyrrolo [3,4-c] carbazoles as cyclin D1/CDK4 inhibitors” (Bioorg Med Chem Lett, 2003)

Assays:
[1] = biological target: Cyclin-dependent kinase 4/cyclin D1 (Homo sapiens, UniProt P11802); assay: Inhibitory activity against cyclin D1/ (cyclin dependent kinase) CDK4; format: protein-complex assay
HCT-116 = assay: Inhibition of human colon carcinoma (HCT116) cell proliferation; format: functional, cell-based
NCI-H460 = assay: Inhibition of non-small cell lung carcinoma (NCI-460) cell proliferation; format: functional, cell-based; conditions: Homo sapiens

Cyclin-dependent kinase 4/cyclin D1, sequence (P11802 whole entry): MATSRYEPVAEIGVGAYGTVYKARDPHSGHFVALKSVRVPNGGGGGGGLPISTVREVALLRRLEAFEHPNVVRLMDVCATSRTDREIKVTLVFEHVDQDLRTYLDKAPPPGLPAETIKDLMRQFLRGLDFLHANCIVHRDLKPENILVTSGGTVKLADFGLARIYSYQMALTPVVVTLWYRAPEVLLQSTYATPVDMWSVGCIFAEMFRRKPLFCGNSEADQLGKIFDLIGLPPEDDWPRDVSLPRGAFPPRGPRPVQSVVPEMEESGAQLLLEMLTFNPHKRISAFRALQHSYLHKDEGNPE
Cyclin-dependent kinase 4/cyclin D1, sequence (P24385 whole entry, further chain): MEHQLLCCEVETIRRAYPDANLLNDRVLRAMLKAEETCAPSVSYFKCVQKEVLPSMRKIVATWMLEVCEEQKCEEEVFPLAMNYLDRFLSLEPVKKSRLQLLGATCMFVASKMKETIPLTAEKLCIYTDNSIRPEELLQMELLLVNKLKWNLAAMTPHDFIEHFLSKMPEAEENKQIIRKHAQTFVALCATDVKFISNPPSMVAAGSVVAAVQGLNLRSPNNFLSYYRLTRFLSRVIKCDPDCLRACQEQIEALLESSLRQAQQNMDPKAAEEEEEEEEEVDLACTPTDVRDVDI

| IC50 [1] | IC50 (HCT-116) | SMILES | IC50 (NCI-H460) |
| --- | --- | --- | --- |
| > 2000 nM | 800 nM | O=C1NC(=O)c2c1c1c(ccc3cccnc31)c1[nH]c3ccccc3c21 | 3530 nM |
| 170 nM | 310 nM | CN(C)CCCn1c2ccccc2c2c3c(c4c5ccccc5cnc4c21)C(=O)NC3=O | 370 nM |
| 1190 nM |  | O=C1NC(=O)c2c1c1cnc3ccccc3c1c1c2c2ccccc2n1CCCO |  |
| > 2000 nM |  | O=C1NC(=O)c2c1c1c3ccccc3cnc1c1[nH]c3ccccc3c21 |  |
| 69 nM | 130 nM | O=C1NC(=O)c2c1c1c3ccncc3ccc1c1[nH]c3ccccc3c21 | 74 nM |
| > 200 nM | 430 nM | O=C1NC(=O)c2c1c1c3cccnc3ccc1c1[nH]c3ccccc3c21 | 1910 nM |

More lines, now with the values behind:

| SMILES | IC50 [1] | IC50 (HCT-116) | IC50 (NCI-H460) |
| --- | --- | --- | --- |
| O=C1NC(=O)c2c1c1c3ccccc3cnc1c1c2c2ccccc2n1CCCCO | 1150 nM |  |  |
| O=C1NC(=O)c2c1c1c3ccccc3ncc1c1[nH]c3ccccc3c21 | 683 nM | 390 nM | 660 nM |
| O=C1NC(=O)c2c1c1c3ccccc3cnc1c1[nH]c3c(CCO)cccc3c21 | > 2000 nM |  |  |
| O=C1NC(=O)c2c1c1c3ccccc3cnc1c1c2c2ccccc2n1CCCO | > 2000 nM | 160 nM | 410 nM |
| COc1ccc2c(c1)[nH]c1c3cnc4ccccc4c3c3c(c21)C(=O)NC3=O | 210 nM |  | 390 nM |
| O=C1NC(=O)c2c1c1nc3ccccc3cc1c1[nH]c3ccccc3c21 | > 10000 nM | 5510 nM | 4040 nM |
| O=C1NC(=O)c2c1c1c3ccccc3ncc1c1[nH]c3cc(Cl)ccc3c21 | > 2000 nM | 650 nM | 450 nM |
| CN(C)CCCCn1c2ccccc2c2c3c(c4c5ccccc5cnc4c21)C(=O)NC3=O | 1140 nM |  |  |
| O=C1NC(=O)c2c1c1cnc3ccccc3c1c1[nH]c3ccccc3c21 | > 10000 nM | 1950 nM | 930 nM |
